Measurements as given in patent US7799821B2, “Therapeutic compounds” (Allergan, Inc., priority 2004, dated 2010).

Legend:
[1] = test system: monkeys; assay: Intraocular pressure (IOP) in monkeys; format: in vivo; conditions: Conc. 0.10% (0.1%) g/100 mL
[2] = test system: Beagle dogs; assay: Ocular surface hyperemia, dogs; format: in vivo; parameters: key: 0.5: <1 trace; 1 mild; 2: moderate; 3: severe; conditions: score
Experimental: (§1) Ocular surface hyperemia was visually assessed and scored according to a system typically used clinically.
(§2) Ocular surface hyperemia was evaluated at the same time points as intraocular pressure measurement. It should be noted that untreated dog eyes frequently have a pink/red tone. Thus, values of trace or even mild are not necessarily out of the normal range. Similar tests were used to determine ocular surface hyperemia on monkeys and rabbits.

[3] = test system: rabbits; assay: Ocular surface hyperemia, rabbits; format: in vivo; conditions: Conc. 0.10% (0.1%) g/100 mL, score
Experimental: as §1, §2

[4] = test system: Beagle dogs; assay: Intraocular pressure (IOP) in dogs, pneumatonometry; format: in vivo; conditions: topical
Experimental: (§3) Intraocular pressure studies in dogs involved pneumatonometry performed in conscious, Beagle dogs of both sexes (10-15 kg). The animals remained conscious throughout the study and were gently restrained by hand. Drugs were administered topically to one eye as a 25 μL volume drop, the other eye received 25 μL vehicle (0.1% (w/v) polysorbate 80; 10 mM TRIS) as a control. Proparacaine (0.1% w/v) was used for corneal anesthesia during tonometry. Intraocular pressure was determined just before drug administration and at 2, 4 and 6 hr thereafter on each day of the 5 day study. Drug was administered immediately after the first IOP reading.
as §3, with “(0.1%” for “(0.1% (w/v)”, “80:10” for “80; 10”, “(0.1%)” for “(0.1% w/v)”

[5] = biological target: T1, HEP3 (Homo sapiens, UniProt P43115); assay: Radioligand binding, EP3; conditions: printed in the HEP3 binding column; read-out: Ki (marked "Ki" in BINDING HEP3)
T1 sequence (P43115 1-390): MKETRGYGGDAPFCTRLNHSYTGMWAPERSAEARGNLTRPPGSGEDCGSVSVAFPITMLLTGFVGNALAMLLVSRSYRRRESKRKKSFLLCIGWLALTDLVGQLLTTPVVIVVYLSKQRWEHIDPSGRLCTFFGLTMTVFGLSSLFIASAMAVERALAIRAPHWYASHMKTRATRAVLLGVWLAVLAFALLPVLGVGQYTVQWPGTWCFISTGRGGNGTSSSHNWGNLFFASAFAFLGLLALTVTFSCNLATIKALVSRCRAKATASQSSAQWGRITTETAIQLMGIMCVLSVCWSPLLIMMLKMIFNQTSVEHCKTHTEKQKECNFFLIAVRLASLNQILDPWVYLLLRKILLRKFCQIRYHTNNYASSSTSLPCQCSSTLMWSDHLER

[6] = biological target: T2, hEP2/Gqs5 (Homo sapiens, UniProt P43116); assay: FLIPR calcium signal, hEP2; format: cell-based; conditions: FLIPR Ca2+ signal, HEK-293(EBNA); read-out: FUNCTIONAL EC50 HEP2
T2 construct: expressed in transfected cells; host or cells: HEK-293(EBNA)
Method in brief: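 HEK-293(EBNA) cells stably expressing the recombinant human receptor were loaded with 2 μM Fluo-4 AM for 45 min and read on FLIPR at 37° C in HBSS-HEPES pH 7.4. Peak fluorescence rise was expressed relative to buffer and standard agonist controls (BW245C, PGE2 or U-46619 by receptor); compounds were run 10^−5 to 10^−11 M in duplicate, n≧3.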

T2 sequence (P43116 whole entry): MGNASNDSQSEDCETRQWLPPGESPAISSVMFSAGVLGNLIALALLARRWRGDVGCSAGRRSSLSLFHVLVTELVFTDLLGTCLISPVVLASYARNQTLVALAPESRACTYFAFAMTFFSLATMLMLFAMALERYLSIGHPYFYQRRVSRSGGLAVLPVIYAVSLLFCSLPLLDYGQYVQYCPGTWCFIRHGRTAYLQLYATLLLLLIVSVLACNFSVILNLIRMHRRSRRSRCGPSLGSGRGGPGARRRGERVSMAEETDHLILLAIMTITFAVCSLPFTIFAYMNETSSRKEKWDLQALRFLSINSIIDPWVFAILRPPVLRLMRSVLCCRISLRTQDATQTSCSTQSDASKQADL

| DOG Max. hyperemia ([2]; Conc. 0.10% (0.1%) g/100 mL) | RABBIT Max. hyperemia [3] | Compound | MONKEY Max. ΔIOP (mm Hg) [1] [mm Hg] | DOG Max. ΔIOP (mm Hg) ([4]; Conc. 0.10% (0.1%) g/100 mL) | other results |
| --- | --- | --- | --- | --- | --- |
| 2.0 |  | CCCCCC(=O)c1ccc([C@@H]2[C@@H](C/C=C\CCCC(=O)O)[C@H](Cl)C[C@H]2O)cc1 | 31 |  |  |
| 0.8 | 0 | CCCCCC(=O)c1ccc([C@@H]2[C@@H](C/C=C\CCCC(=O)OC(C)C)[C@H](Cl)C[C@H]2O)cc1 | 20 |  |  |
| 0.6 | 0.0 | CCCCCC(O)c1ccc([C@@H]2[C@@H](C/C=C\CCCC(=O)OC(C)C)[C@H](Cl)C[C@H]2Cl)cc1 (stereo partly drawn) | 19 | −12 |  |
|  |  | CC(C)C(O)c1ccc([C@@H]2[C@@H](C/C=C\CCCC(=O)O)[C@H](Cl)C[C@H]2O)cc1 (stereo partly drawn) |  |  | Ki [5]: 1.34 µM; EC50 [6]: 0.497 µM |
|  |  | CC(C)C(O)c1ccc([C@@H]2[C@@H](CCCCCCC(=O)O)[C@H](Cl)C[C@H]2O)cc1 (stereo partly drawn) |  |  | Ki [5]: 3.02 µM; EC50 [6]: > 10 µM |
| 0.9 | 0 | CC(C)(C)c1ccc([C@@H]2[C@@H](CCCCCCC(=O)O)[C@H](Cl)C[C@H]2O)cc1 [drawing 237] |  | −4 |  |
| 1 | 0 | O=C(O)CCC/C=C\C[C@@H]1[C@@H](c2ccc(C(O)C3CCCCC3)cc2)[C@H](O)C[C@H]1Cl (stereo partly drawn) [drawing 239] |  | −4 |  |
|  |  | CC(C)(CO)c1ccc([C@@H]2[C@@H](C/C=C\CCCC(=O)O)[C@H](Cl)C[C@H]2O)cc1 [drawing 243] |  |  | DOG Max. ΔIOP (mm Hg) ([4]; Conc. 0.30% g/100 mL): −8 mm Hg; DOG Max. hyperemia ([2]; Conc. 0.30% g/100 mL): 0.9 |
